Data taken from patent US12110286B2, “Benzimidazolone derived inhibitors of BCL6” (Cancer Research Technology Limited, priority 2017, dated 2024).

Columns and labels:
SU-DHL-4 cells = test: 14-day cell proliferation assay (CellTiter Glo); type: cell-based; conditions: Homo sapiens, SU-DHL-4, 336 h; SU-DHL4 cells, 14 days
Protocol: 14-Day Cell Proliferation Assay
SU-DHL-4 cells were seeded in 96-well culture plates at a density of 2000 cells/well in RPMI-1640 medium (Sigma-Aldrich) supplemented with 10% FBS (Gibco). Compounds were initially dispensed into 96-well U-bottom plates using an Echo 550 acoustic dispenser (Labcyte Inc.), then diluted in RPMI-1640 medium and transferred onto the cells. Cells were treated with 8 compound concentrations in duplicate, ranging from 1 nM to 10 μM, in a final DMSO concentration of 0.1% and final volume of 100 μl. Cells were incubated with compound for 14 days, with medium changes at days 3, 7 and 10 carried out as follows: fresh 96-well cell culture plates were prepared containing 100 μl medium plus compound at the assay concentrations (white plates were used on day 10 to optimise luminescence measurement). Assay plates containing cells were vortexed to mix and cell density in one control well was counted using a Coulter Z2 cell counter (Beckman Coulter). The volume of medium containing 2000 cells in the control well was calculated and this volume of cells was transferred from every well of the assay plates to the corresponding well of the fresh plates containing compound. After 14 days, CellTiter Glo reagent (Promega) was added to the medium in each well of the assay plate at a ratio of 1:2, mixed on a plate shaker, then incubated at room temperature for 10 minutes. Luminescence was measured using an Envision plate reader (Perkin Elmer) and the relative luminescence at each compound concentration, compared to DMSO alone, was calculated. G150 were determined using a 4-parameter curve fit in Dotmatics (Bishops Stortford, UK).

[1] = molecular target: Trx-6×His-BCL6 (human BCL6 BTB domain covering amino-acid sequence 5-129) (Homo sapiens (Human), UniProt P41182); test: HTRF in vitro assay (BCL6 / BCOR-AF633 peptide); type: binding; conditions: further generated data, 1 nM Trx-6×His-BCL6, 300 nM BCOR-AF633 peptide, 0.5 nM anti-6×His-Terbium cryptate; for IC50: read-out: HTRF pIC50 (converted)
Protocol: The % inhibition at each concentration was calculated by normalising FRET ratio to the appropriate high (DMSO with all reagents) and low (DMSO without BCL6) controls.

endogenous BCL6 protein = endogenous BCL6 protein (Homo sapiens (Human), UniProt P41182); test: Immunofluorescence-based BCL6 degradation assay; type: cell-based; conditions: 2 hours with compound
Protocol: Immunofluorescence-Based BCL6 Degradation Assay
DC50 values (compound concentration at which 50% of endogenous BCL6 protein is degraded) were determined in SUDHL-4 cells (American Type Culture Collection) in an immunofluorescence-based assay using an InCell2200 high content imaging system (GE Healthcare). […] After 20 hours cell culture at 37° C./CO2 incubator, compounds were dispensed in the cell culture plate using ECHO550 acoustic dispenser (Labcyte, Inc.), as 8 point-concentration response (ranging from 5 nM to 10 μM) in 0.67% final DMSO concentration. Cells were incubated with compound for 2 hours at 37° C./CO2 incubator followed by fixation in 4.5% formaldehyde (37% formaldehyde solution, Sigma catalogue F8775) at room temperature for 15 min. […] Blocking and cell permeabilisation were performed by incubating the fixed cells for 1 hour at room temperature in 1×TBS, 5% BSA, 1% Triton X100, followed by three washes on PW384 plate washer. Primary and secondary antibodies were prepared in 1×TBS, 1% BSA, 0.2% Triton X100. […] After incubation in each antibody, cells were washes four times in 1×TBS-0.05% tween on PW384 plate washer. Cells were finally incubated for 60 min with nuclear staining RedDot2 dye (Biotium) at 0.5× the stock concentration in 1×TBS. BCL6 expression in the absence or presence of compound was detected on InCell2200 with 20× objective and quantified on InCell Analyser 3.7.2 workstation (GE Healthcare). The % response at each concentration was calculated by normalising BCL6 expression in the presence of compound to the appropriate high (DMSO) and low (DMSO with 7 μM CCT369260) controls.

[2] = molecular target: BCL6-NCOR2(SMRT) corepressor protein-protein interaction (Homo sapiens (Human), UniProt P41182); test: NanoBRET cell assay; type: cell-based; conditions: further generated data; transfected HEK293T cells, 6 hr; read-out: NanoBRET cell pIC50 (converted)
Protocol: A cellular nano-Bioluminescence Resonance Energy Transfer (nanoBRET) assay (Promega NanoBRET Nano-Glo Detection System, catalogue number N1662) was used to detect inhibition of the BCL6-NCOR2(SMRT) corepressor protein-protein interaction. DNA encoding full length BCL6 and NCOR2 were inserted into pFC32K.NanoLuc and pFC14K.HaloTag vectors (Promega) to produce C-terminal tagged fusion proteins BCL6-nanoLuc and NCOR2-HaloTag, respectively. HEK293T cells were plated (5×10^5) in T75 tissue culture flask and bulk transfected 48 hours later with Fugene 6 (Promega cat. #E2691) reagent and 18 μg total DNA plasmids encoding BCL6-nanoLuc as donor and NCOR2-HaloTag as acceptor, at a donor:acceptor DNA ratio of 1:25. At 24 hr post-transfection, HEK293T cells were collected and stored in liquid nitrogen in 90% FBS (PAN Biotech UK) and 10% DMSO. […] Frozen transfected HEK293T cells were thawed, centrifuged and freezing medium was replaced by phenol red-free OptiMEM+4% FBS (Life Technology). […] Cells were incubated for 6 hr at 37° C./5% C02 then NanoBRET furimazine substrate (Promega) was added to give a final concentration of 10 μM. After a short centrifugation the plates were read on an Envision (Perkin Elmer) plate reader equipped with a LUM/D600 Dual mirror, Lum 450/40 nm bandpass and D605 nm longpass filters, with a 0.2 sec reading to determine the BRET ratio. The % inhibition at each test concentration was calculated by normalising the BRET ratio to the appropriate high and low controls.

Compound | GI50 (SU-DHL-4 cells) | HTRF pIC50 [1] | Degradation assay in SU-DHL4 cells (pDC50) (endogenous BCL6 protein) | IC50 [1] | IC50 [2]
C[C@@H]1CN(c2ncc(Cl)c(Nc3ccc4c(c3)n(CCC(C)(C)O)c(=O)n4C)n2)C[C@H](C)C1(F)F [Example 20a, 5-((5-chloro-2-((3R,5S)-4,4-difluoro-3,5-dimethylpiperidin-1-yl)pyrimidin-4-yl)amino)-3-(3-hydroxy-3-methylbutyl)-1-methyl-1,3-dihydro-2H-benzo[d]imidazol-2-one] | 0.07 µM |  |  |  | 
C[C@@H]1C[C@H](C)CN(c2ncc(Cl)c(Nc3ccc4c(c3)n(CCC(C)(C)O)c(=O)n4C)n2)C1 [Example 20e] | 0.35 µM |  |  |  | 
CC1CCCN(c2ncc(Cl)c(Nc3ccc4c(c3)n(CCC(C)(C)O)c(=O)n4C)n2)C1.O=CO (stereo not drawn) [Example 20g] | 0.75 µM | 6.07 | 6.29 |  | 
Cn1c(=O)n(CCC(C)(C)O)c2cc(Nc3nc(N4CCCC(C(F)(F)F)C4)ncc3Cl)ccc21 (stereo not drawn) [Example 20h] |  | 6.49 | 6.30 |  | 
Cn1c(=O)n(CCC(C)(C)O)c2cc(Nc3nc(N4CCC(F)(F)C(CO)C4)ncc3Cl)ccc21 (stereo not drawn) [Example 35a, 5-((5-chloro-2-(4,4-difluoro-3-(hydroxymethyl)piperidin-1-yl)pyrimidin-4-yl)amino)-3-(3-hydroxy-3-methylbutyl)-1-methyl-1,3-dihydro-2H-benzo[d]imidazol-2-one] | 1.14 µM |  |  |  | 
COCC1CN(c2ncc(Cl)c(Nc3ccc4c(c3)n(CCC(C)(C)O)c(=O)n4C)n2)CCC1(F)F (stereo not drawn) [Example 35b, 5-((5-chloro-2-(4,4-difluoro-3-(methoxymethyl)piperidin-1-yl)pyrimidin-4-yl)amino)-3-(3-hydroxy-3-methylbutyl)-1-methyl-1,3-dihydro-2H-benzo[d]imidazol-2-one] | 1.84 µM | 6.70 | 6.35 |  | 
CC1CN(c2ncc(Cl)c(Nc3ccc4c(c3)n(CCC(C)(C)O)c(=O)n4C)n2)CCC1(F)F (stereo not drawn) [Example 35c, 5-((5-chloro-2-(4,4-difluoro-3-methylpiperidin-1-yl)pyrimidin-4-yl)amino)-3-(3-hydroxy-3-methylbutyl)-1-methyl-1,3-dihydro-2H-benzo[d]imidazol-2-one] | 0.44 µM | 6.53 | 6.75 |  | 
Cn1c(=O)n(CCC(C)(C)O)c2cc(Nc3nc(N4CCC(F)(F)CC4)ncc3Cl)ccc21 [Example 35d, 5-((5-chloro-2-(4,4-difluoropiperidin-1-yl)pyrimidin-4-yl)amino)-3-(3-hydroxy-3-methylbutyl)-1-methyl-1,3-dihydro-2H-benzo[d]imidazol-2-one] | 1.13 µM | 6.48 | 6.59 |  | 
C[C@@H]1CN(c2ncc(Cl)c(Nc3ccc4c(c3)n(CCC(C)(C)O)c(=O)n4CCC(C)(C)O)n2)C[C@H](C)C1(F)F [Example 35j, 5-((5-chloro-2-((3R,5S)-4,4-difluoro-3,5-dimethylpiperidin-1-yl)pyrimidin-4-yl)amino)-1,3-bis(3-hydroxy-3-methylbutyl)-1,3-dihydro-2H-benzo[d]imidazol-2-one] | 0.76 µM |  | 6.43 | 1.74 µM | 
CC(C)(O)CCn1c(=O)n(CCC(C)(C)O)c2ncc(Nc3nc(N4CC(C)(C)OC(C)(C)C4)ncc3Cl)cc21 [Example 35q, 6-((5-chloro-2-(2,2,6,6-tetramethylmorpholino)pyrimidin-4-yl)amino)-1,3-bis(3-hydroxy-3-methylbutyl)-1,3-dihydro-2H-imidazo[4,5-b]pyridin-2-one] |  | 6.63 |  |  | 1.7 µM
Cn1c(=O)n(CCC(C)(C)O)c2cc(Nc3nc(N4C5CC6CC(C5)CC4C6)ncc3Cl)ccc21 [Example 35t, 5-((2-((1r,3r,5r,7r)-2-azaadamantan-2-yl)-5-chloropyrimidin-4-yl)amino)-3-(3-hydroxy-3-methylbutyl)-1-methyl-1,3-dihydro-2H-benzo[d]imidazol-2-one] |  | 6.46 |  |  | 2.34 µM
COCC1CCCN(c2ncc(Cl)c(Nc3ccc4c(c3)n(CCC(C)(C)O)c(=O)n4C)n2)C1 (stereo not drawn) [Example 35v, 5-((5-chloro-2-(3-(methoxymethyl)piperidin-1-yl)pyrimidin-4-yl)amino)-3-(3-hydroxy-3-methylbutyl)-1-methyl-1,3-dihydro-2H-benzo[d]imidazol-2-one] |  | 6.70 |  |  | 2.34 µM
C[C@@H]1C[C@H](O)CN(c2ncc(Cl)c(Nc3ccc4c(c3)n(CCC(C)(C)O)c(=O)n4C)n2)C1 [Example 35x, 5-((5-chloro-2-((3S,5R)-3-hydroxy-5-methylpiperidin-1-yl)pyrimidin-4-yl)amino)-3-(3-hydroxy-3-methylbutyl)-1-methyl-1,3-dihydro-2H-benzo[d]imidazol-2-one] |  | 7.01 |  |  | 3.16 µM
Cn1c(=O)n(CCC(C)(C)O)c2cc(Nc3cc(N4CCC(F)(F)CC4)ncc3Cl)ccc21 [Example 36a, 5-((5-chloro-2-(4,4-difluoropiperidin-1-yl)pyridin-4-yl)amino)-3-(3-hydroxy-3-methylbutyl)-1-methyl-1,3-dihydro-2H-benzo[d]imidazol-2-one] |  |  | 6.35 | 0.813 µM | 
